Assay results: patent publication US20190365685A1, “EYE DROPS FOR TREATING DRY EYE” (LTT BIO-PHARMA CO., LTD., priority 2013, published 2019)

Key:
HCE cells [1] = experiment: MTT assay in hyperosmotic media with diclofenac, NaCl and/or PGE2 (Example 3); format: cell-based, Human; conditions: 150 mM NaCl, 24 hours
Description: HCE cells were incubated in hyperosmotic media containing diclofenac, 150 mM NaCl, and/or PGE2 for 24 hours. The number of viable cells was measured by MTT assay, and the absorbance data were expressed as relative values to that of the control (under isotonic conditions).
The same procedure as in Example 3 was followed, except that bromfenac was used in place of diclofenac.

HCE cells [2] = experiment: Caspase-3-like activity under hyperosmotic conditions (Example 2); format: cell-based, Human; conditions: 150 mM NaCl, six hours of incubation
Description: (§1) HCE cells were incubated in hyperosmotic media containing diclofenac and 150 mM NaCl. After six hours of incubation, the caspase-3-like activity was measured using a fluorescent peptide substrate. Furthermore, after 12 hours of incubation, cell proliferation was assessed by BrdU incorporation assay, and the absorbance data were expressed as relative values to that of the control (under isotonic conditions). The values are represented as average±S.D. (n=3), with a single asterisk (*) indicating P<0.05 and a double asterisk (**) indicating P<0.01. The same procedure as in Example 2 was followed, except that bromfenac was used in place of diclofenac.

[3] = test system: Human corneal epithelial cells (HCE cells); experiment: MTT assay of viable cells under hyperosmotic conditions (Example 1); format: cell-based; conditions: 150 mM NaCl, 280 mM glucose or 280 mM sorbitol, compared with other NSAIDs
Description: Human corneal epithelial cells (HCE cells) were incubated in hyperosmotic media containing diclofenac. The hyperosmotic conditions of each medium were created by 150 mM NaCl, 280 mM glucose, or 280 mM sorbitol. The number of viable cells was measured by MTT assay, and the absorbance was calculated relative to the control (under isotonic conditions). The values are represented as average±S.D. (n=3), with a single asterisk (*) indicating P<0.05 and a double asterisk (**) indicating P<0.01.
The same procedure as in Example 1 was followed, except that other nonsteroidal anti-inflammatory drugs (NSAIDs) were used in place of diclofenac.

PGE2 = experiment: Amount of PGE2 induced by arachidonic acid, measured by EIA (Example 3); format: cell-based, Human; conditions: HCE cells, 30 minutes pre-incubation, 10 μM arachidonic acid
Description: Separately, HCE cells were pre-incubated in media containing diclofenac for 30 minutes, and then incubated in media containing 10 μM arachidonic acid and diclofenac. The arachidonic acid was added to induce PGE2. The amount of PGE2 contained in each culture was measured by EIA. The values are represented as average±S.D. (n=3), with a single asterisk (*) indicating P<0.05 and a double asterisk (**) indicating P<0.01. The same procedure as in Example 3 was followed, except that bromfenac was used in place of diclofenac.

NFAT5 = NFAT5 expression and nuclear translocation by immunoblotting (Example 4); format: cell-based, Human; conditions: HCE cells, 150 mM NaCl, six hours or one hour
Description: HCE cells were incubated in hyperosmotic media containing diclofenac and 150 mM NaCl for six hours (FIG. 4A and FIG. 4C) or for one hour (FIG. 4B). Each whole cell homogenate (FIG. 4A and FIG. 4B) or nuclear extract (FIG. 4B) was analyzed by immunoblotting using an anti-NFAT5, anti-actin, or anti-lamin B antibody. The intensity of the NFAT5 band was measured and expressed as relative values to that of the control (under isotonic conditions without diclofenac) (FIG. 4A and FIG. 4B). The relative bgt1 mRNA expression level was measured by real-time RT-PCR, and the values normalized by the actin expression level are expressed as relative values to that of the control (under isotonic conditions without diclofenac) (FIG. 4C). The values are represented as average±S.D. (n=3), with a single asterisk (*) indicating P<0.05 and a double asterisk (**) indicating P<0.01. The same procedure as in Example 4 was followed, except that bromfenac was used in place of diclofenac.

[4] = test system: corneal surface disorders in the dry eye model; experiment: Rat dry eye model, fluorescein score after four weeks of administration (Example 10); format: in vivo; conditions: lacrimal gland removed, ophthalmic solution 5 μl, 0.05% (1.55 mM), three times a day
Description: The lacrimal gland of a rat was removed to prepare a dry eye model. One week after the lacrimal gland removal, an ophthalmic solution (5 μl) containing diclofenac (0.05%, 1.55 mM; or 0.1%, 3.1 mM) was administered three times a day. After four weeks from the start of the administration, the tears were subjected to fluorescein staining, and the fluorescein score was calculated. The same procedure as in Example 10 was followed, except that a buffer was used (Vehicle) in place of diclofenac.

HCE cells [5] = experiment: Cell proliferation by BrdU incorporation assay under hyperosmotic conditions (Example 2); format: cell-based, Human; conditions: 150 mM NaCl, 12 hours of incubation
Description: as §1

[6] = test system: corneal surface disorders in the dry eye model; experiment: Rat dry eye model by lacrimal gland removal (Example 5); format: in vivo; conditions: lacrimal gland removed, ophthalmic solution 5 μl, 0.1% (3.1 mM), three times a day, fluorescein score, TUNEL
Description: The lacrimal gland of a rat was removed to prepare a dry eye model. One to five weeks after the lacrimal gland removal, an ophthalmic solution (5 μl) containing diclofenac (0.1%, 3.1 mM) was administered three times a day. The amount of tears was measured by the cotton thread test. Five weeks after the lacrimal gland removal, ocular tissue sections were prepared and subjected to TUNEL assay and DAPI staining. The values are represented as average±S.E.M., with a single asterisk (*) indicating P<0.01 and n.s. meaning “not significant”. The same procedure as in Example 5 was followed, except that bromfenac was used in place of diclofenac.

## CCCCC[C@H](O)/C=C/[C@H]1[C@H](O)CC(=O)[C@@H]1C/C=C\CCCC(=O)O [PGE2, prostaglandin E2]
HCE cells [1]; hyperosmotic media
  number of viable cells with PGE2 (MTT): did not change

## O=C(O)Cc1ccccc1Nc1c(Cl)cccc1Cl [diclofenac]
HCE cells [2]
  inhibiting apoptosis under hyperosmotic conditions (caspase-3-like activity): effective in inhibiting apoptosis under hyperosmotic conditions
[3]
  reducing cytotoxicity under hyperosmotic conditions (number of viable cells, MTT): highly effective in reducing cytotoxicity under hyperosmotic conditions
PGE2
  concentration required to reduce PGE2: 0.1 nM
NFAT5
  expression and nuclear translocation of NFAT5: enhancing the expression and nuclear translocation of NFAT5
[4]
  corneal surface disorders in the dry eye model (fluorescein score): treatable
HCE cells [5]
  cell proliferative effect (BrdU incorporation): exhibited a cell proliferative effect
HCE cells [1]; MTT
  concentration required to reduce cytotoxicity caused by hyperosmolarity: 100 nM
[6]
  effect of treating corneal surface disorders in the dry eye model: exhibited the effect of treating corneal surface disorders
